The text below walks through data of patent publication US4859668A, “Method of inhibiting the growth of melanin-pigmented cells” (North Carolina State University, priority 1988, dated 1989).

Like-named read-outs stand apart in the source and are kept apart here.

The test system of data set [1] is melanin-pigmented cells. As to the kind of experiment: In vitro selective inhibition of melanin-pigmented cells, effective dosage/time regimens. It counts as cell-based.
Data set [2] concerns S91 melanoma. As to the kind of experiment: Effects of Various Cyclic Amines on Growth of Pigmented Melanoma Cells (Table III), S91. Type of data set: cell-based, mouse. Conditions: for inhibition at 13800 µM: Mus musculus, read-out: Percent Inhibition, S91 melanoma. The procedure: (§1) Pigmented S91 melanoma and unpigmented L929 fibroblast cells were treated with various cyclic amines at a concentration of 13.8 mM as described in Example 1 above.

In data set [3] the test system is L929 fibroblast. As to the kind of experiment: Effects of Various Cyclic Amines on Growth of Pigmented Melanoma Cells (Table III), L929. It counts as cell-based, mouse. Conditions: for inhibition at 13800 µM: Mus musculus, read-out: Percent Inhibition, L929 fibroblast. As to the method:
as §1

Data set [4] relates to NP. As to the kind of experiment: cells. The following applies: Mus musculus, 1.5 h, read-out: Effect on Growth Rate (inhibition), NP.
Procedure: (§3) These cell cultures include low passage HFH (HFH-LP), a pigmented line derived from the B-16 mouse melanoma, and NP, an amelanotic clone of HFH-LP. […] These cells were maintained as monolayers in Corning plastic flasks in Minimum Essential Medium (Eagle) with Earle's salts supplemented with 10% fetal bovine serum, 100 units of penicillin, 100 mg of streptomycin and 5 mg of amphotericin B per ml in 5% CO2 humidified air at 37° C.
(§4) Prior to dose-response studies, single cell suspensions were prepared in medium following trypsinization and inoculated into Falcon Multiwell plates (2 cm^2 wells) at 3.5×10^4 cells per 0.5 ml of medium. Cultures were maintained for 24 hours before exposure.
(§5) This stock solution was used to prepare test concentrations of the drug in culture medium. […] Cells were exposed to each of these concentrations by adding 0.5 ml of each of the solutions to triplicate test wells and incubating the cells under exposure at 37° C. for 1 hour. […] Cells were harvested after 48 hours and counted with a hemacytometer.
The subject of data set [5] is S91 (Cloudman S91 mouse melanoma). The data set can be described thus: Effect of Cyclic Amines on Survival of Pigmented Melanoma (Table II), S91. Conditions: 24 h, read-out: percentage dead, S91.
Procedure: (§6) These cells were maintained as monolayers in Corning plastic flasks in Minimum Essential Medium (Eagle) with Earle's salts supplemented with 10% fetal bovine serum, 100 units of penicillin, 100 mg of streptomycin and 5 mg of amphotericin B per ml in 5% CO2 humidified air at 37° C.
as §4, §5
For data set [6], the system named is HFH-LP. As to the kind of experiment: Effect of Cyclic Amines on Growth Rate of Pigmented Melanoma (Table I), HFH-LP. Type of data set: cell-based, mouse.
Procedure: as §3, §4, §5
Data set [7] is described as follows: in vitro. Conditions: mouse, l929 cells.
Procedure: as §6, §4, §5
The subject of data set [8] is HFH-LP. The data set can be described thus: Effect of Cyclic Amines on Survival of Pigmented Melanoma (Table II), HFH-LP. The following applies: Mus musculus, 24 h, read-out: percentage dead, HFH-LP.
Procedure: as §6, §4, §5
The subject of data set [9] is BHK. The data set can be described thus: cells. Conditions: Mesocricetus auratus, read-out: Growth inhibition, Theo. Alone vs. control.
Excerpt: (§7) These cell cultures include low passage HFH (HFH-LP), a pigmented line derived from the B-16 mouse melanoma, and NP, an amelanotic clone of HFH-LP. High passage HFH (HFH-HP) was derived from HFH-LP after 30 passages in vitro. […] These cell cultures further include Cloudman S91 mouse melanoma, RPMI 1846 (a Syrian hamster melanoma), baby hamster kidney (BHK) and Chinese hamster ovary (CHO). These cells were maintained as monolayers in Corning plastic flasks in Minimum Essential Medium (Eagle) with Earle's salts supplemented with 10% fetal bovine serum, 100 units of penicillin, 100 mg of streptomycin and 5 mg of amphotericin B per ml in 5% CO2 humidified air at 37° C.
(§8) Single cell suspensions were prepared as described above. Twenty-four hours after seeding, the cells were exposed to either (a) culture medium alone, or (b) culture medium containing 0.5 mM theophylline.
(§9) The values given are the mean from 6 replicates.
The test system of data set [10] is RPMI-1641. The data set can be described thus: cells. The following applies: read-out: Growth inhibition, Theo. Alone vs. control.
Excerpt: as §7, §8, §9
Data set [11] has as its system HFH-LP and HFH-HP. As to the kind of experiment: Pigmentation and growth of cells exposed to theophylline, HFH-LP and HFH-HP. It counts as cell-based, mouse. Conditions: theophylline exposure.
Procedure: as §8
The test system of data set [12] is L929. As to the kind of experiment: cells. The following applies: Mus musculus, L929, read-out: Growth inhibition, Theo. Alone vs. control.
In data set [13] the test system is HFH-LP. As to the kind of experiment: cells. The following applies: Mus musculus, read-out: Growth inhibition, Theo. Alone vs. control.
Excerpt: as §7, §8, §9
Data set [14] deals with Unpigmented NP, CHO and mouse fibroblast L929 cells. As to the kind of experiment: Enhancement of toxicity by theophylline pretreatment, unpigmented cells. Type of data set: cell-based, mouse; Chinese hamster.
Procedure: Twenty-four hours after seeding, the cells were exposed to either (a) culture medium alone, or (b) culture medium containing 0.5 mM theophylline.
In data set [15] the test system is NP. The data set can be described thus: cells. The following applies: Mus musculus, read-out: Growth inhibition, Theo. Alone vs. control.
Excerpt: as §7, §8, §9
Data set [16] relates to RPMI-1641. The following applies: lightly pigmented RPMI 1641.
Excerpt: as §7, §8, §9
Data set [17] has as its system HFH-HP. The data set can be described thus: cells. The following applies: Mus musculus, read-out: Growth inhibition, Theo. Alone vs. control.
Excerpt: as §7, §8, §9
Data set [18] has as its system RPMI 1946 cells. As to the kind of experiment: Pigmentation and growth of cells exposed to theophylline, RPMI 1946. Type of data set: cell-based, Syrian hamster. The following applies: theophylline exposure.
Procedure: as §8
The test system of data set [19] is L929 fibroblast. As to the kind of experiment: Effect of High Dose Exposure to Piperidino 1,2-Propanediol (Table V), L929. The following applies: 30 min. exposure. It counts as cell-based, mouse. An excerpt: (§2) Pigmented S91 melanoma and nonpigmented L929 fibroblast cells were exposed to high doses of piperidino 1,2-propanediol.
The test system of data set [20] is S91 melanoma. As to the kind of experiment: Effect of High Dose Exposure to Piperidino 1,2-Propanediol (Table V), S91. It counts as cell-based, mouse. The following applies: 30 min. exposure.
Excerpt: as §2

Where [21] appears, read: S91, 1 Hour Exposure to 13.8 mM.
Setting [22] is: L929, 1 Hour Exposure to 13.8 mM.

As to `CN1CCN(C)CC1` [1,4-dimethylpiperazine], the “in vitro effectiveness of dosage/time regimen” value in data set [1] (13.8 mM for 1 hour) was “effective in vitro for inhibiting the growth of melanin-pigmented cells with little or no effect upon unpigmented cells”. The figures for the inhibition at 13800 µM in [2] (setting [21]) and in data set [3] (setting [22]) were 99% and 0%, respectively.
With `CN1CCNCC1` [1-methylpiperazine], the “in vitro effectiveness of dosage/time regimen” value in data set [1] (13.8 mM for 1 hour) is “effective in vitro for inhibiting the growth of melanin-pigmented cells with little or no effect upon unpigmented cells”. In addition, the values for the inhibition at 13800 µM in data set [2] (setting [21]) and in data set [3] (setting [22]) were 99% and 0%, respectively.
For the compound `CN1CCCCC1` [1-methylpiperidine], the “in vitro effectiveness of dosage/time regimen” value in [1] (13.8 mM for 1 hour) is reported as “effective in vitro for inhibiting the growth of melanin-pigmented cells with little or no effect upon unpigmented cells”. The inhibition at 13800 µM in data set [2] (setting [21]) amounted to 99%; in [3] (setting [22]), 4%.
In the case of `CC1CNC(C)CN1` (stereo not shown) [2,5-dimethylpiperazine], the “in vitro effectiveness of dosage/time regimen” value in data set [1] (13.8 mM for 1 hour) is recorded as “effective in vitro for inhibiting the growth of melanin-pigmented cells with little or no effect upon unpigmented cells”. In addition, the figures for the inhibition at 13800 µM in data set [2] (setting [21]) and in data set [3] (setting [22]) were 97% and 0%, respectively.
On to `c1cc(N2CCCCC2)ccn1` [4-piperidinopyridine], for which the “in vitro effectiveness of dosage/time regimen” value in [1] (13.8 mM for 1 hour) and in data set [1] (35 mM for 30 minutes) was “effective in vitro for inhibiting the growth of melanin-pigmented cells with little or no effect upon unpigmented cells” each time. The inhibition at 13800 µM in [2] (setting [21]) was 99%; in data set [3] (setting [22]) it was 14%.
For `CCN1CCOCC1` [N--ethylmorpholine, reference compound], the inhibition at 13800 µM in data set [2] (setting [21]) and in [3] (setting [22]) was 0% in each case.
With `CN1CCOCC1` [N--methylmorpholine, reference compound], the inhibition at 13800 µM in data set [2] (setting [21]) and in data set [3] (setting [22]) was 0% each time.
Take `c1ccncc1` [Pyridine, reference compound]: the inhibition at 13800 µM in data set [2] (S91, 1 h) turned out to be 0%; in data set [3] (L929, 1 h), 0%.
Regarding `C1CNCCN1` [piperazine], the “in vitro effectiveness of dosage/time regimen” value in data set [1] (13.8 mM for 1 hour) was “effective in vitro for inhibiting the growth of melanin-pigmented cells with little or no effect upon unpigmented cells”. Besides, the inhibition at 13800 µM in [4] was determined as 0%; in data set [2] (setting [21]), 70%; in [6] (Mus musculus, 13.8 mM for 1.5 hr, mean ± S.E., 6 replicates, read-out: Effect on Growth Rate (inhibition), HFH-LP) it was 24 ± 9%; in [3] (setting [22]), 0%. Moreover, the values for the cytotoxicity at 13800 µM in data set [5] and in data set [8] were 46 ± 5% and -44 ± 4%, respectively. In data set [6] (not as effective as morpholine at the dosage tested), the “inhibition of pigmented cell line HFH-LP (in words)” value is on record as “selectively inhibitory to the pigmented cell line HFH-LP, although not as effective as morpholine”. The cytotoxicity at 24 h, 13800 µM in data set [7] was -101%.
Turning to `Cn1c(=O)c2[nH]cnc2n(C)c1=O` [theophylline, reference compound], the inhibition at 500 µM in data set [9] is 20%; in data set [10], 35%; in data set [12] it was -87%; in data set [13] it was 35%; in data set [15], 11%; in [17], 40%. Further, in [11], the “growth rate of the cells” value was “decreased”. Besides, the “pigmentation of the treated cells” value in data set [11] was “visible increase in pigmentation”. Further, the “effect of theophylline pretreatment on unpigmented cells” value in data set [14] is “remained unaffected”. The sensitization to morpholine entry in data set [16] is “sensitized the lightly pigmented RPMI 1641 cell line to morpholine”. Besides, the growth rate entry in [18] is “similarly affected”. Further, the pigmentation entry in data set [18] was “no visible change in pigmentation”.
For the compound “piperidino 1,2-propanediol [piperidino1,2-propanediol]”, the “in vitro effectiveness of dosage/time regimen” value in [1] (13.8 mM for 1 hour) and in data set [1] (35 mM for 30 minutes) was “effective in vitro for inhibiting the growth of melanin-pigmented cells with little or no effect upon unpigmented cells” throughout. Besides, the “% inhibition, L929 fibroblast” value in [19] (13.8 mM) is reported as 0%; in [19] (34.5 mM) it was 7%; in [19] (69 mM), 10%; in data set [19] (138 mM), 19%. The “Percent Inhibition, S91 melanoma” value in data set [2] (1 Hour Exposure to 13.8 mM) worked out at 46%. In addition, the “Percent Inhibition, L929 fibroblast” value in [3] (1 Hour Exposure to 13.8 mM) worked out at 1%. Moreover, the “% inhibition, S91 melanoma” value in data set [20] (13.8 mM) was 16%; in [20] (34.5 mM), 44%; in data set [20] (69 mM) it was 81%; in [20] (138 mM), 91%.
